Source: DBAASP
≈ marks a conversion by molar mass, not a printed value. Blank lines part the entries; values can stand above or below the compound they belong to.

Key:
Assay in all cases: ≥ marks a high value that may be exact or a test limit, other limits are often not marked, values filed in µg/mL are converted to µM
[1] = system: Staphylococcus aureus ATCC 25923
[2] = system: Salmonella enterica subsp. enterica serovar Typhimurium ATCC 14028
[3] = system: Proteus mirabilis
[4] = system: Bacillus megaterium Bm11
[5] = system: Staphylococcus aureus
[6] = system: Escherichia coli ML-35
[7] = system: Escherichia coli
[8] = system: Staphylococcus epidermidis ATCC 35984
[9] = system: Staphylococcus aureus ATCC 33591
[10] = system: Pseudomonas aeruginosa ATCC 27853
[11] = system: Pseudomonas aeruginosa
[12] = system: Escherichia coli 363
[13] = system: Escherichia coli B
[14] = system: Candida albicans TIMM 1768
[15] = system: Saccharomyces cerevisiae KCTC 7296
[16] = system: Trichosporon beigelii KCTC 7707
[17] = system: Bacillus subtilis 168
[18] = system: Staphylococcus epidermidis
[19] = system: Micrococcus luteus CCM 144
[20] = system: Staphylococcus aureus ATCC 43300
[21] = system: Candida albicans F7-39/IDE99
[22] = system: Candida parapsilosis ATCC 22019
[23] = system: Candida albicans ATCC 24433
[24] = system: Streptococcus mutans
[25] = system: Escherichia coli DH5alpha
[26] = system: Klebsiella pneumoniae
[27] = system: Micrococcus luteus ATCC 9341
[28] = system: Salmonella typhimurium

MIC [8]: 1.42 µM (≈ 2.83 µg/mL)
MIC [1]: 45.4 µM (≈ 90.5 µg/mL)
MIC [9]: ≥ 128 µM
MIC [10]: 1 µM (≈ 2 µg/mL)
Compound: CC[C@H](C)[C@H](NC(=O)[C@H](CCCCN)NC(=O)[C@@H](NC(=O)[C@H](Cc1ccccc1)NC(=O)[C@H](C)NC(=O)[C@H](CCCCN)NC(=O)CNC(=O)[C@H](Cc1ccccc1)NC(=O)[C@H](CCCCN)NC(=O)[C@H](CCCCN)NC(=O)[C@H](C)NC(=O)[C@H](CCCCN)NC(=O)[C@H](CCCCN)NC(=O)[C@H](CC(C)C)NC(=O)[C@@H](N)Cc1ccccc1)C(C)C)C(=O)N[C@@H](CC(C)C)C(=O)N[C@@H](CCCCN)C(N)=O [FLKKAKKFGKAFVKILK]

MIC [17]: 7 µM (≈ 12.3 µg/mL)
MIC [11]: 47 µM (≈ 82.5 µg/mL)
MIC [18]: 16 µM (≈ 28.1 µg/mL)
MIC [19]: 3 µM (≈ 5.27 µg/mL)
MIC [20]: > 100 µM
MIC [21]: 23 µM (≈ 40.4 µg/mL)
MIC [13]: 30 µM (≈ 52.7 µg/mL)
MIC [5]: > 100 µM
MIC [10]: 26 µM (≈ 45.6 µg/mL)
Compound: CC[C@H](C)[C@H](NC(=O)CN)C(=O)N[C@@H](CCSC)C(=O)N[C@@H](CO)C(=O)N[C@@H](CO)C(=O)N[C@@H](CC(C)C)C(=O)N[C@@H](CCSC)C(=O)N[C@@H](CCCCN)C(=O)N[C@@H](CCCCN)C(=O)N[C@@H](CC(C)C)C(=O)N[C@@H](CCCCN)C(=O)N[C@@H](C)C(=O)N[C@@H](Cc1cnc[nH]1)C(=O)N[C@H](C(=O)N[C@@H](C)C(=O)N[C@@H](CCCCN)C(N)=O)[C@@H](C)CC [GIMSSLMKKLKAHIAK]

MIC [24]: ≥ 176 µM
Compound: CC[C@H](C)[C@H](NC(=O)[C@H](CCC(N)=O)NC(=O)[C@H](CCCCN)NC(=O)[C@H](Cc1ccccc1)NC(=O)[C@@H](NC(=O)[C@H](CCC(N)=O)NC(=O)[C@H](CC(C)C)NC(=O)[C@H](CC(C)C)NC(=O)[C@@H](N)CCCCN)[C@@H](C)O)C(=O)N[C@@H](Cc1ccccc1)C(=O)N[C@@H](CCCN=C(N)N)C(=O)O [KLLQTFKQIFR]

MIC [8]: ≥ 133 µM
MIC [1]: > 375 µM
MIC [9]: ≥ 375 µM
MIC [10]: 66.3 µM (≈ 90.4 µg/mL)
Compound: CC[C@H](C)[C@H](NC(=O)[C@H](CCCCN)NC(=O)[C@@H](NC(=O)[C@H](Cc1ccccc1)NC(=O)[C@H](C)NC(=O)[C@H](CCCCN)NC(=O)CNC(=O)[C@H](Cc1ccccc1)NC(=O)[C@H](CCCCN)NC(=O)[C@H](CCCCN)NC(=O)[C@H](C)NC(=O)[C@@H](N)CCCCN)C(C)C)C(N)=O [KAKKFGKAFVKI]

MIC [22]: ≥ 267 µM
MIC [23]: ≥ 267 µM
Compound: CC(C)C[C@H](NC(=O)[C@H](CCCN=C(N)N)NC(=O)[C@H](CCC(N)=O)NC(=O)[C@H](Cc1cnc[nH]1)NC(=O)[C@@H](NC(=O)[C@H](CCCCN)NC(=O)[C@H](CC(C)C)NC(=O)[C@H](CCC(=O)O)NC(=O)[C@H](CO)NC(=O)[C@H](CCCN=C(N)N)NC(=O)[C@@H](N)CO)C(C)C)C(=O)N[C@@H](Cc1ccccc1)C(N)=O [SRSELKVHQRLF]

Second part, the compound before the results:

Compound: CC[C@H](C)[C@H](NC(=O)[C@H](CCCCN)NC(=O)[C@H](CCCCN)NC(=O)[C@H](Cc1ccccc1)NC(=O)[C@H](CCCCN)NC(=O)[C@H](CCC(=O)O)NC(=O)CNC(=O)[C@@H](NC(=O)[C@H](CCCCN)NC(=O)[C@H](CCCCN)NC(=O)[C@H](CC(C)C)NC(=O)[C@H](Cc1ccccc1)NC(=O)[C@H](CC(=O)O)NC(=O)[C@H](CCCNC(=N)N)NC(=O)[C@H](CC(C)C)NC(=O)[C@H](CCCNC(=N)N)NC(=O)[C@H](CCCNC(=N)N)NC(=O)[C@H](CC(C)C)NC(=O)[C@H](CC(C)C)NC(=O)CN)[C@@H](C)CC)C(=O)NCC(=O)N[C@H](C=O)Cc1ccc(O)cc1 [GLLRRLRDFLKKIGEKFKKIGY]
MIC [1]: 4 µM (≈ 10.7 µg/mL)
MIC [2]: 4 µM (≈ 10.7 µg/mL)
MIC [3]: ≥ 32 µM
MIC [4]: 1 µM (≈ 2.66 µg/mL)
MIC [5]: 2 µM (≈ 5.33 µg/mL)
MIC [6]: 4 µM (≈ 10.7 µg/mL)
MIC [7]: 4 µM (≈ 10.7 µg/mL)

Compound: CC[C@H](C)[C@H](NC(=O)[C@H](CCCCN)NC(=O)[C@H](CO)NC(=O)[C@H](Cc1c[nH]c2ccccc12)NC(=O)[C@H](CC(C)C)NC(=O)CN)C(=O)N[C@@H](CCCCN)C(=O)N[C@@H](CCC(=O)O)C(=O)N[C@H](C(=O)NCC(=O)N[C@@H](CCCCN)C(=O)N[C@@H](CCC(=O)O)C(=O)N[C@@H](C)C(=O)N[C@@H](C)C(=O)N[C@@H](CCCCN)C(=O)N[C@@H](C)C(=O)N[C@@H](C)C(=O)N[C@@H](C)C(=O)N[C@@H](CCCCN)C(=O)N[C@@H](C)C(=O)N[C@@H](C)C(=O)NCC(=O)N[C@@H](CCCCN)C(N)=O)C(C)C [GLWSKIKEVGKEAAKAAAKAAGK]
MIC [11]: 100 µM (≈ 231 µg/mL)
MIC [12]: 25 µM (≈ 57.8 µg/mL)
MIC [13]: ≥ 50 µM
MIC [5]: > 100 µM

Compound: CC[C@H](C)[C@H](NC(=O)[C@@H](NC(=O)[C@@H](N)CCCN=C(N)N)[C@@H](C)CC)C(=O)N[C@@H](CC(=O)O)C(=O)N[C@@H](CC(C)C)C(=O)N[C@@H](CC(C)C)C(=O)N[C@@H](Cc1c[nH]c2ccccc12)C(=O)N[C@@H](CCCN=C(N)N)C(=O)N[C@H](C(=O)N[C@@H](CCCN=C(N)N)C(=O)N[C@@H](CCCN=C(N)N)C(=O)N1CCC[C@H]1C(=O)N[C@@H](Cc1c[nH]c2ccccc12)C(=O)N[C@@H](Cc1c[nH]c2ccccc12)C(=O)N1CCC[C@H]1C(=O)N[C@@H](CCCCN)C(=O)N[C@@H](Cc1ccccc1)C(=O)N[C@H](C(=O)N[C@H](C(=O)N[C@H](C(=O)N[C@@H](Cc1c[nH]c2ccccc12)C(=O)N[C@H](C(=O)N[C@@H](CCCN=C(N)N)C(N)=O)C(C)C)C(C)C)[C@@H](C)O)C(C)C)C(C)C [RIIDLLWRVRRPWWPKFVTVWVR]
MIC [14]: 10 µM (≈ 30.8 µg/mL)
MIC [15]: 14.1 µM (≈ 43.5 µg/mL)
MIC [16]: 20 µM (≈ 61.6 µg/mL)

Compound: CC(C)C[C@H](NC(=O)[C@H](CCCN=C(N)N)NC(=O)[C@H](CCC(N)=O)NC(=O)[C@H](Cc1cnc[nH]1)NC(=O)[C@@H](NC(=O)[C@H](CCCN=C(N)N)NC(=O)[C@H](CC(C)C)NC(=O)[C@H](CCC(=O)O)NC(=O)[C@H](CO)NC(=O)[C@H](CCCN=C(N)N)NC(=O)[C@@H](N)CO)C(C)C)C(=O)N[C@@H](Cc1ccccc1)C(N)=O [SRSELRVHQRLF]
MIC [22]: ≥ 262 µM
MIC [23]: ≥ 262 µM

Compound: CC(C)C[C@H](NC(=O)[C@H](Cc1ccccc1)NC(=O)[C@H](Cc1cnc[nH]1)NC(=O)[C@H](Cc1ccc(O)cc1)NC(=O)[C@@H](N)CC(C)C)C(=O)N[C@@H](Cc1cnc[nH]1)C(=O)N[C@@H](Cc1c[nH]c2ccccc12)C(=O)N[C@@H](Cc1ccccc1)C(=O)N[C@@H](CCC(N)=O)C(=O)N[C@@H](CCCN=C(N)N)C(=O)N[C@@H](Cc1ccccc1)C(N)=O [LYHFLHWFQRF]
MIC [24]: ≥ 78.4 µM

Compound: CC[C@H](C)[C@H](N)C(=O)N[C@@H](CC(C)C)C(=O)N[C@@H](C)C(=O)N[C@@H](Cc1c[nH]c2ccccc12)C(=O)N[C@@H](CCCCN)C(=O)N[C@@H](Cc1c[nH]c2ccccc12)C(=O)N1CCC[C@H]1C(=O)N[C@@H](Cc1c[nH]c2ccccc12)C(=O)N[C@@H](Cc1c[nH]c2ccccc12)C(=O)N1CCC[C@H]1C(=O)N[C@@H](Cc1c[nH]c2ccccc12)C(=O)N[C@@H](CCCN=C(N)N)C(=O)N[C@@H](CCCN=C(N)N)C(N)=O [ILAWKWPWWPWRR]
MIC [11]: 50 µM (≈ 94 µg/mL)
MIC [25]: ≥ 35 µM
MIC [26]: 35 µM (≈ 65.8 µg/mL)
MIC [27]: 0.4 µM (≈ 0.752 µg/mL)
MIC [28]: ≥ 50 µM
